Results: PMC8333053, “Synthesis and biological screening of new thiadiazolopyrimidine-based polycyclic compounds” (Scientific Reports, 2021)
Values after ≈ are worked out from the molar mass of the structure shown.

Experiments:
[1] = test system: Chromobacterium violaceum (ATCC 12472); assay: Antiquorum-sensing assay (violacein pigment inhibition); assay type: cell-based; conditions: Chromobacterium violaceum, ATCC12472, 48 h, read-out: Diameter of quorum-sensing inhibition C. violaceum
Text: The synthesized thiadiazolopyrimidine-based compounds were screened for their antiquorum-sensing (anti-QS) inhibition activity by the Chromobacterium violaceum (ATCC 12472) technique using catechin as the standard compound[28]–[30]. The QS technique of C. violaceum was remarked by the detection of violacein (violet pigment)[31],[32]. Meanwhile, the reactivity of the synthesized thiadiazolopyrimidine-containing derivatives as drugs depends on their efficiency to inhibit the liberation of violacein during the QS technique. The QS inhibition was determined by the following equation: QS inhibition (mm) = (r2 − r1), where r1 is the inhibition radius of the bacterial growth and r2 is the inhibition radius for growth as well as the release of the pigment.
The anti-QS inefficiency was evaluated using the previous technique mentioned in the literature.
The culture was prepared by growing Ch. violaceum ATCC 12472 in LB broth and incubated for 16–18 h in an orbital incubator running at 28°C and 150 rpm. The culture was then adjusted to 0.5 McFarland standard (ca. 1 × 10^6 CFU/mL). Ch. violaceum (50 µL) was inoculated into LB agar (50 mL), poured into plates, and solidified. Wells were made in LB agar medium using cork borer. The tested compounds were dissolved in DMSO 100% in Eppendorf tubes for final concentration of 5 mg/mL, and 50 µL of the test solution was applied into the wells. The positive control (catechin) was also added at the same concentration and volume to each plate. In addition, DMSO (control solvent) was added to each plate. […] Bacterial growth inhibition by the tested compounds was measured as radius (r1) in mm, while both growth and pigment inhibition was measured as radius (r2) in mm. The pigment inhibition (QS inhibition) was determined by subtracting bacterial growth inhibition (r1) from the total radius (r2); thus, QS inhibition = (r2 - r1) in mm.

DNA = assay: Bleomycin-dependent DNA damage; assay type: biochemical; conditions: test sample 0.1 mg/mL, λ = 532 nm; mean of three replicates ± SD; ascorbic acid 0.24 mM
Text: Bleomycin-dependent DNA damage. The prepared polycyclic thiadiazolopyrimidine-based compounds were examined through the bleomycin-dependant DNA damage, and the results were compared to that of ascorbic acid as a positive control. The obtained data reflected the ability of these derivatives to protect the DNA from damage. The capability of compounds 16a–b and 17a–b to manifest the best protective effect against DNA damage was indicated by the corresponding absorbance values ranging from 0.031 to 0.053 (Table 4)[35],[36].
Bleomycin-dependent DNA damage experiment: To a mixture of 0.5 mg / mL of DNA, 5 mM magnesium chloride, 50 mM ferric chloride and 0.05 mg / mL bleomycin sulfate was prepared. The test sample was prepared at a concentration of 0.1 mg / mL and added to the mixture. After incubation of the mixture for one hour at 37 °C, 0.05 mL of EDTA (0.1 M) was added to terminate the reaction. In the next step, 0.5 mL of TBA (1% w / v) and 0.5 mL of HCl (25% v / v) were added for colour development and the mixture was heated for 10 minutes at 80 °C. The mixture was centrifuged and the absorbance expressed, the amount of damage to the DNA was measured at λ = 532 nm. L-Ascorbic acid (0.24 mM) was used as a positive control.

Candida albicans = assay: Antifungal MIC, two-fold serial dilution; assay type: cell-based; conditions: Fungi, glucose minimal medium, 30°C, 48 h, visual (no turbidity)
Description: (§1) The antimicrobial activity of the synthesized thiadiazolopyrimidine compounds was studied toward diverse pathogenic strains, such as gram-positive bacteria (Staphylococcus aureus ATCC 29213 and Bacillus cereus UW85), gram-negative bacteria (Escherichia coli ATCC 12435 and Pseudomonas aeruginosa ATCC 29260), and fungi (Candida albicans and Aspergillus fumigatus 293). The assessment was performed through the two-fold dilution technique using Ampicillin (antibacterial) and Fluconazole (antifungal) as the reference drugs[28],[29]. The minimal inhibitory concentration (MICs, µg/mL) of the synthesized derivatives for prohibiting microbial growth was determined through the visual detection (no turbidity) technique.
(§2) The synthesized thiadiazolopyrimidine-based compounds were evaluated and adopted for antibacterial and antifungal effectiveness using the approved procedure[38],[39].
(§3) Minimal inhibitory concentrations (MICs) were determined by serial dilution technique using 96-multiwell microtiter plates. The investigated compounds were dissolved in DMSO 100% to prepare stock solutions of 5000 µg/mL. Two-fold serial dilutions of the dissolved compounds were performed in glucose minimal medium providing eight different concentrations (1250, 625, 312.5, 156, 78, 39, 19.5 µg/mL). The microorganisms were diluted to 1 ×10^3 SFU/mL in glucose minimal medium, and 20 µL of the diluted culture was added to the test solutions (50 µL) in the wells (one well per concentration). The plates were incubated at 30°C for 48 h. MIC was detected visually as the least concentration inhibiting fungal growth (no turbidity) and the activity of the tested compounds was estimated in comparison to fluconazole.

[2] = test system: Aspergillus fumigatus 293; assay: Antifungal MIC, two-fold serial dilution; assay type: cell-based; conditions: Fungi, glucose minimal medium, 30°C, 48 h, visual (no turbidity)
Description: as §1, §2, §3

[3] = test system: Escherichia coli ATCC 12435; assay: Antibacterial MIC, two-fold serial dilution; assay type: cell-based; conditions: ATCC12435, Gram −ve bacteria, LB broth, 37°C, 24 h, visual (no turbidity)
Description: as §1, §2
(§4) Minimal inhibitory concentrations (MICs) were determined by serial dilution technique using 96-multiwell microtiter plates. The investigated compounds were dissolved in DMSO 100% to prepare stock solutions of 5000 µg/mL. Two-fold serial dilutions of the dissolved compounds were performed in LB broth providing eight different concentrations (1250, 625, 312.5, 156, 78, 39, 19.5 µg/mL). Overnight cultures of microorganisms were diluted to 1 ×10^6 CFU/mL in LB broth, and 20 mL of the diluted cultures were added to the test solutions (50 mL) in the wells (one well per concentration per bacterial strain). The plates were incubated at 37°C for 24 h. MIC was detected visually as the least concentration inhibiting bacterial growth (no turbidity) and the activity of the tested compounds was estimated in comparison to ampicillin.

Bacillus cereus UW85 = assay: Antibacterial MIC, two-fold serial dilution; assay type: cell-based; conditions: Gram +ve bacteria, LB broth, 37°C, 24 h, visual (no turbidity), read-out: MIC B. cereus
Description: as §1, §2, §4

[4] = test system: Pseudomonas aeruginosa ATCC 29260; assay: Antibacterial MIC, two-fold serial dilution; assay type: cell-based; conditions: ATCC29260, Gram −ve bacteria, LB broth, 37°C, 24 h, visual (no turbidity), read-out: MIC P. aeruginosa
Description: as §1, §2, §4

[5] = test system: Staphylococcus aureus ATCC 29213; assay: Antibacterial MIC, two-fold serial dilution; assay type: cell-based; conditions: ATCC29213, Gram +ve bacteria, LB broth, 37°C, 24 h, visual (no turbidity), read-out: MIC S. aureus
Description: as §1, §2, §4

SMILES | zone of inhibition at 5000 µg/mL [1] [mm] | melting point [°C] | Absorbance (bleomycin-dependent DNA damage) (DNA) | MIC (Candida albicans) [µg/mL] | MIC [2] [µg/mL] | MIC [3] [µg/mL] | MIC (Bacillus cereus UW85) [µg/mL] | MIC [4] [µg/mL] | MIC [5] [µg/mL]
N#Cc1cn2ncsc2nc1=O [Compound 3, 6-cyano-7-oxo-7H-[1,3,4]thiadiazolo[3,2-a]pyrimidine] | < 2 | 264 to 265 | 0.281 ± 0.22 | > 1250 | > 1250 | > 1250 | > 1250 | > 1250 | 1250 (≈ 7.02 mM)
Nc1n[nH]c2c1c(=O)nc1scnn12 [Compound 4, 3-Aminopyrazolo[4,3-e][1,3,4]thiadiazolo[3,2-a]pyrimidin-4(1H)-one] | < 2 | 281 to 282 | 0.165 ± 0.19 | > 1250 | > 1250 | > 1250 | > 1250 | > 1250 | 1250 (≈ 6 mM)
Nc1nn(-c2ccccc2)c2c1c(=O)nc1scnn12 [Compound 5, 3-Amino-1-phenylpyrazolo[4,3-e][1,3,4]thiadiazolo[3,2-a]pyrimidin-4(1H)-one] | < 2 | 254 to 255 | 0.146 ± 0.16 | 1250 (≈ 4.4 mM) | > 1250 | 1250 (≈ 4.4 mM) | 625 (≈ 2.2 mM) | 1250 (≈ 4.4 mM) | 625 (≈ 2.2 mM)
N#Cc1c(N)nc(N)c2c(=O)nc3scnn3c12 [Compound 6, 6,8-Diamino-9-cyano-5-oxo-5H-pyrido[3,4-e][1,3,4]thiadiazolo[3,2-a]pyrimidine] | < 2 | 302 to 303 | 0.135 ± 0.14 | > 1250 | > 1250 | > 1250 | 1250 (≈ 4.82 mM) | 1250 (≈ 4.82 mM) | > 1250
CCOC(=O)c1c(N)nc(N)c2c(=O)nc3scnn3c12 [Compound 7, Ethyl 6,8-diamino-5-oxo-5H-pyrido[3,4-e][1,3,4]thiadiazolo[3,2-a]pyrimidine-9-carboxylate] | < 2 | 278 to 280 | 0.132 ± 0.19 | > 1250 | > 1250 | 625 (≈ 2.04 mM) | 1250 (≈ 4.08 mM) | 1250 (≈ 4.08 mM) | 1250 (≈ 4.08 mM)
CC(=O)C1=C(C)OC(N)=C2C(=O)N=C3SC=NN3C12 (stereo not shown) [Compound 8a, 9-Acetyl-6-amino-8-methyl-5H,9aH-pyrano[3,4-e][1,3,4]thiadiazolo[3,2-a]pyrimidin-5-one] | 3 |  | 0.078 ± 0.13 | 312 (≈ 1.12 mM) | > 1250 | 1250 (≈ 4.49 mM) | 625 (≈ 2.25 mM) | 1250 (≈ 4.49 mM) | 312 (≈ 1.12 mM)
CC1=C(C(=O)c2ccccc2)C2C(=C(N)O1)C(=O)N=C1SC=NN12 (stereo not shown) [Compound 8b, 6-Amino-9-benzoyl-8-methyl-5H,9aH-pyrano[3,4-e][1,3,4]thiadiazolo[3,2-a]pyrimidin-5-one] | 12 | 239 to 241 | 0.066 ± 0.05 | 156 (≈ 0.458 mM) | 1250 (≈ 3.67 mM) | 1250 (≈ 3.67 mM) | 312 (≈ 0.918 mM) | 312 (≈ 0.918 mM) | 156 (≈ 0.458 mM)
Cc1n[nH]c2c1C1C(=C(N)O2)C(=O)N=C2SC=NN21 (stereo not shown) [Compound 10a, 6-Amino-10-methyl-8,10b-dihydro-5H-pyrazolo[4′,3′:5,6]pyrano[3,4-e][1,3,4]thiadiazolo[3,2-a]pyrimidin-5-one] | 13 |  | 0.098 ± 0.07 | 625 (≈ 2.26 mM) | > 1250 | 1250 (≈ 4.52 mM) | 625 (≈ 2.26 mM) | 312 (≈ 1.13 mM) | 625 (≈ 2.26 mM)
